In ChEMBL document CHEMBL3763143, “Novel morpholine scaffolds as selective dopamine (DA) D3 receptor antagonists” (Bioorg Med Chem Lett, 2016):
Values belong to the molecule of their own block, whether it stands above or below them. The source made the active and inactive calls. No cut-off for these calls is given here.

How the values were obtained:
[1] = biological target: T1, D(3) dopamine receptor (Homo sapiens, UniProt P35462); experiment: Agonist activity at human dopamine D3 receptor expressed in CHO cells after 90 mins by [35S]-GTPgamma S assay; type: cell-based
T1 sequence (P35462 whole entry): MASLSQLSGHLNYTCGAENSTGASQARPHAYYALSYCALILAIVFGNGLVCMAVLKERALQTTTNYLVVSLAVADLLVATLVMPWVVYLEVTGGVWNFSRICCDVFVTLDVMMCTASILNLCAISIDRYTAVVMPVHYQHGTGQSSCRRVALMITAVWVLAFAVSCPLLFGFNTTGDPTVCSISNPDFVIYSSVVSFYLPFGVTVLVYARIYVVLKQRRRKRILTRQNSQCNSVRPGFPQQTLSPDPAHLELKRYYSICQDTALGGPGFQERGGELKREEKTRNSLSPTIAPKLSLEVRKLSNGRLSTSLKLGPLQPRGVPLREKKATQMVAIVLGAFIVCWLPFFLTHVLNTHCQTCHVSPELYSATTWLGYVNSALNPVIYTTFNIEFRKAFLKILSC

[2] = biological target: D(3) dopamine receptor (Rattus norvegicus, UniProt P19020)
D(3) dopamine receptor (Rattus norvegicus, UniProt P19020), sequence (P19020 whole entry): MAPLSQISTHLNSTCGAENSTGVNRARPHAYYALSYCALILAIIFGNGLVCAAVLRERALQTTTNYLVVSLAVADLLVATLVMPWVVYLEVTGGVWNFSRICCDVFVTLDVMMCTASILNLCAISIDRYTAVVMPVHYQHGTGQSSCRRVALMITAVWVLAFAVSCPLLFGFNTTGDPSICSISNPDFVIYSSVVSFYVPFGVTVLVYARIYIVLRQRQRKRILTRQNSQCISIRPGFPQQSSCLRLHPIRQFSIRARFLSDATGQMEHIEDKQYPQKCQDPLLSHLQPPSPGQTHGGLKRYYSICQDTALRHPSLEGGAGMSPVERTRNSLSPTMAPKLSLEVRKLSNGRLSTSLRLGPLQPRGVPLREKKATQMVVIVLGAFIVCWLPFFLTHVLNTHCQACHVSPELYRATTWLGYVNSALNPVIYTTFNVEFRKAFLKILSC
Description: Displacement of [125I]-7-OH-PIPAT from rat brain dopamine D3 receptor after 45 mins by microplate scintillation counting analysis

[3] = biological target: T1, D(3) dopamine receptor; experiment: Antagonist activity at human dopamine D3 receptor expressed in CHO cells after 90 mins by [35S]-GTPgamma S assay; type: cell-based
[4] = biological target: Voltage-gated inwardly rectifying potassium channel KCNH2 (Homo sapiens, UniProt Q12809); experiment: Displacement of [3H]-dofetilide from human ERG potassium channel by scintillation proximity assay
Voltage-gated inwardly rectifying potassium channel KCNH2, sequence (Q12809 whole entry): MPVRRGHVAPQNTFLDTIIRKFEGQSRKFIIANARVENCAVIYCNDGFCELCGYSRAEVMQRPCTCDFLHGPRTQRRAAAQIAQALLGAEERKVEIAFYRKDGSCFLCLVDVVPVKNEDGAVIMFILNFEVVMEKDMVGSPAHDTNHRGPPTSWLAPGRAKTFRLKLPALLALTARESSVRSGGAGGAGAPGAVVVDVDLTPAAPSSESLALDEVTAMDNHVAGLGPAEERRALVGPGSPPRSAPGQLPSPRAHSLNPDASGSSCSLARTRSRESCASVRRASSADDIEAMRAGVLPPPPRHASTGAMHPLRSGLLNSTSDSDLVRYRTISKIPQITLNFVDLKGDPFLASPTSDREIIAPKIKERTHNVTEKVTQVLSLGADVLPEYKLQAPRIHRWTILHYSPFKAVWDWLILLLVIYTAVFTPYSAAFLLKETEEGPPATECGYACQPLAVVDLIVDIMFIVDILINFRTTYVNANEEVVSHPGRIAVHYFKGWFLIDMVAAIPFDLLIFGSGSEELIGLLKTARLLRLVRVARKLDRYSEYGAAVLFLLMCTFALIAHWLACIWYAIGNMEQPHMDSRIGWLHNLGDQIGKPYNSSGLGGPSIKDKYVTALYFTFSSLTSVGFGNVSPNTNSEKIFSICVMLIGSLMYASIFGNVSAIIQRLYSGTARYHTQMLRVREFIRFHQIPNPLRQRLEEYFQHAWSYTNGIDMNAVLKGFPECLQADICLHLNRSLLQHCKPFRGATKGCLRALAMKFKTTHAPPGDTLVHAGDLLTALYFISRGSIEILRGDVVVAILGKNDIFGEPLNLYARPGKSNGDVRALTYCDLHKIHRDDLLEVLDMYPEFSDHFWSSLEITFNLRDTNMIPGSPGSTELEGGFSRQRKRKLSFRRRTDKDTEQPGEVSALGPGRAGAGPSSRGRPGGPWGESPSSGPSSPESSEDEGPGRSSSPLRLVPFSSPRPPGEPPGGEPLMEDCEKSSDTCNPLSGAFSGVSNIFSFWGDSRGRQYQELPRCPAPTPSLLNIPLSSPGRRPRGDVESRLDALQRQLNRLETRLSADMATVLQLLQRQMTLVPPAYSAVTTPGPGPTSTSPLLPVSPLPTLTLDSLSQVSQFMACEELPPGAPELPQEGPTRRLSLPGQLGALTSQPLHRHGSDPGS

[5] = biological target: T2, Muscarinic acetylcholine receptor M1 (Homo sapiens, UniProt P11229); experiment: Antagonist activity at muscarinic M1 receptor (unknown origin)
T2 sequence (P11229 whole entry): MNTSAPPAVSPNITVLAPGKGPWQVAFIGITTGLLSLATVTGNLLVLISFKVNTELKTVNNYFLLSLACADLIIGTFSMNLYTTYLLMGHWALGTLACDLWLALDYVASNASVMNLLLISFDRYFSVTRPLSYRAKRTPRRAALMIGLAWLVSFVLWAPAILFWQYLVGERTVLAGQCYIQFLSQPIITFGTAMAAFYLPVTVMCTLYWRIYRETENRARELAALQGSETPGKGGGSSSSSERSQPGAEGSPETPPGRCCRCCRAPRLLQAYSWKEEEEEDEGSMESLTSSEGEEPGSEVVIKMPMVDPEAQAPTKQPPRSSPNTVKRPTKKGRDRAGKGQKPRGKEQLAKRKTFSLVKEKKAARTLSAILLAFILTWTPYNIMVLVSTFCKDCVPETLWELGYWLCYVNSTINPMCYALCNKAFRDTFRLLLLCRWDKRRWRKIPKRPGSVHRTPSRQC

[6] = biological target: Dopamine receptor D2 and D3 (Rattus norvegicus) (UniProt P19020+P61169); experiment: Selectivity ratio of Ki for rat brain dopamine D2 receptor to Ki for rat brain dopamine D3 receptor
Dopamine receptor D2 and D3 (Rattus norvegicus), sequence (P19020 whole entry, looked up): as the sequence (P19020 whole entry) above
Dopamine receptor D2 and D3 (Rattus norvegicus), sequence (P61169 whole entry, looked up): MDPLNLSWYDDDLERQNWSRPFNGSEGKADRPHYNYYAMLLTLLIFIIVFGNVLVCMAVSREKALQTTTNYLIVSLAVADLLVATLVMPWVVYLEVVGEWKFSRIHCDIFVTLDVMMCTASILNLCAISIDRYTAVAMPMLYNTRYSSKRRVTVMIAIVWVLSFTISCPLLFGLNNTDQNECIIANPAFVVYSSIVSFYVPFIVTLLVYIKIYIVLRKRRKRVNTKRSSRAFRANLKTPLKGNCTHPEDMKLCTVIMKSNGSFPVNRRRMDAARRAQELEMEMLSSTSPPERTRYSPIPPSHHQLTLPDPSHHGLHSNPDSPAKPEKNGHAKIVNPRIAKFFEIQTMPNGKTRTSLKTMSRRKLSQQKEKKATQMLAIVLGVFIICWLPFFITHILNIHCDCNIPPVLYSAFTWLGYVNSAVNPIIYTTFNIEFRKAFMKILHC

[7] = biological target: D(1A) dopamine receptor (Homo sapiens, UniProt P21728); experiment: Binding affinity to dopamine D1 receptor (unknown origin)
D(1A) dopamine receptor, sequence (P21728 whole entry): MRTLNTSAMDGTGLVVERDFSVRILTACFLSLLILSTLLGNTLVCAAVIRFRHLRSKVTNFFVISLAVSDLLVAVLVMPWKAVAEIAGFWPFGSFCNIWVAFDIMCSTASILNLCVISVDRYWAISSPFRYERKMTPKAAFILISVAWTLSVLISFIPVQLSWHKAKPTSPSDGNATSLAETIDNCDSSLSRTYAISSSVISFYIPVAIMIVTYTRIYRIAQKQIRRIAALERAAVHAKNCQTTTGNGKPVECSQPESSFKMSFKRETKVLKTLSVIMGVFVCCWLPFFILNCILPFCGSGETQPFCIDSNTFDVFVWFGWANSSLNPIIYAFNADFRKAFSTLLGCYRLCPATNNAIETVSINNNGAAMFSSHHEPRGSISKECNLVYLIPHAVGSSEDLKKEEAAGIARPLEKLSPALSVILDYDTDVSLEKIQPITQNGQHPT

[8] = biological target: Muscarinic acetylcholine receptor M3 (Homo sapiens, UniProt P20309); experiment: Binding affinity to muscarinic M3 receptor (unknown origin)
[9] = biological target: T3, D(4) dopamine receptor (Homo sapiens) (UniProt P21917); experiment: (§1) Binding affinity to dopamine D4 receptor (unknown origin)
T3 sequence (whole entry): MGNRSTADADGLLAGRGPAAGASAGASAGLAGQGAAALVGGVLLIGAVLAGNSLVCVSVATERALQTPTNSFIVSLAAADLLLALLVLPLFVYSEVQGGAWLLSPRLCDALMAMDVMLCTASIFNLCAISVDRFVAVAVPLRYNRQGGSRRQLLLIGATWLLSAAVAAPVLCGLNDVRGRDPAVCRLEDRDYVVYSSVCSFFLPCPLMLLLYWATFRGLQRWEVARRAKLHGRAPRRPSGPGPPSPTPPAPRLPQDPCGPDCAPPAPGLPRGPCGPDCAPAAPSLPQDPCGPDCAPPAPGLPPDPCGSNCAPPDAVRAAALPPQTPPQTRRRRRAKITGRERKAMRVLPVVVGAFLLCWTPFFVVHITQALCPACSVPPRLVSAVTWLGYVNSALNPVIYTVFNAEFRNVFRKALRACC

[10] = Intrinsic clearance in human liver microsomes assessed per mg of protein; type: ADME; conditions: read-out: CLH
[11] = Fraction unbound in portal vein-cannulated rat brain; type: ADME, tissue-based
[12] = biological target: T4, Cytochrome P450 1A2 (Homo sapiens, UniProt P05177); experiment: Inhibition of human CYP1A2 expressed in bactosome; type: ADME
T4 sequence (P05177 whole entry): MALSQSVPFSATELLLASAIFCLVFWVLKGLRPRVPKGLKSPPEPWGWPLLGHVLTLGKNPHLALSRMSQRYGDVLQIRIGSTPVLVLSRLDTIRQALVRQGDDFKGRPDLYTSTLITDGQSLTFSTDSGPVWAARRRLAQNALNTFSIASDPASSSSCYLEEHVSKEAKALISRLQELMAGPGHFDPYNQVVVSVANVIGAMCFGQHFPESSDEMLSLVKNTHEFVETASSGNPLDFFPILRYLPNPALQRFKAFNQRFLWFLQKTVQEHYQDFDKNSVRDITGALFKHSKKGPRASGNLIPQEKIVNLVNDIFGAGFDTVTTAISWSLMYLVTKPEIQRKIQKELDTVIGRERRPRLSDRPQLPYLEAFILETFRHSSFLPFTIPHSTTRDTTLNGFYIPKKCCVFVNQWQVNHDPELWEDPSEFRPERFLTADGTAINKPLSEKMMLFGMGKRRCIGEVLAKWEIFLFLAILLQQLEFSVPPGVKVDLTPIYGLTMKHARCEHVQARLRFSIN

[13] = biological target: Cytochrome P450 2C9 (Homo sapiens, UniProt P11712); experiment: Inhibition of human CYP2C9 expressed in bactosome; type: ADME
Cytochrome P450 2C9, sequence (P11712 whole entry): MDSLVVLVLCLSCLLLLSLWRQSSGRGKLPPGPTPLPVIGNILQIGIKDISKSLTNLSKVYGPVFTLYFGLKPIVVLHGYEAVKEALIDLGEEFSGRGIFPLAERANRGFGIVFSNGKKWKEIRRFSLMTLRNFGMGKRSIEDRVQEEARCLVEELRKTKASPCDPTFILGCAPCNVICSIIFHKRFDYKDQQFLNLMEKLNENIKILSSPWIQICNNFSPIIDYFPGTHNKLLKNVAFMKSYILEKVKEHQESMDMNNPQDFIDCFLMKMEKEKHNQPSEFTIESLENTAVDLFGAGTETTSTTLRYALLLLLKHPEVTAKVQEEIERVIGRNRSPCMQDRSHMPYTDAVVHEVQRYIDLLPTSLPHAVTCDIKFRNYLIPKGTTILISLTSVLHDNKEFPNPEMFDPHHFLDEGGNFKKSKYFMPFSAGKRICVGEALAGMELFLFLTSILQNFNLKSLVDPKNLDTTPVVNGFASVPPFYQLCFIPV

[14] = biological target: T5, Cytochrome P450 3A4 (Homo sapiens, UniProt P08684); experiment: Inhibition of human CYP3A4 expressed in bactosome using 7BQ as substrate; type: ADME
T5 sequence (P08684 whole entry): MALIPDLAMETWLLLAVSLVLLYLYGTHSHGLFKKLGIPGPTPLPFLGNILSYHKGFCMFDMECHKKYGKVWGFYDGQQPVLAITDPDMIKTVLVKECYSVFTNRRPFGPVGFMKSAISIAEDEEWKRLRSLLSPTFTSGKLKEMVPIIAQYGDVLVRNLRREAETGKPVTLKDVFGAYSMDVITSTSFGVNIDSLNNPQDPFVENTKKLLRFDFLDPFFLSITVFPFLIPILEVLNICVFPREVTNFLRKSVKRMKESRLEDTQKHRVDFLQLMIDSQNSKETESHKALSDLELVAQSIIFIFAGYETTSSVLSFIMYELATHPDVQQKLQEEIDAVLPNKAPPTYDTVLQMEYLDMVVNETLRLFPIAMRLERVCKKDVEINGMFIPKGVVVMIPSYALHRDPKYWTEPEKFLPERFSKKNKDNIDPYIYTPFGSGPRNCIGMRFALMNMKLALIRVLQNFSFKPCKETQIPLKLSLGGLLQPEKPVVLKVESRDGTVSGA

[15] = Fraction absorbed in portal vein-cannulated rat; type: ADME, organism-based; conditions: in vivo
[16] = Half life in portal vein-cannulated rat; type: ADME, organism-based; conditions: in vivo
[17] = Fraction unbound in portal vein-cannulated rat blood; type: ADME, tissue-based
[18] = biological target: T5, Cytochrome P450 3A4; experiment: Inhibition of human CYP3A4 expressed in bactosome using DBOMF as substrate; type: ADME
[19] = Bioavailability in portal vein-cannulated rat; type: ADME, organism-based; conditions: in vivo
[20] = biological target: Cytochrome P450 2C19 (Homo sapiens, UniProt P33261); experiment: Inhibition of human CYP2C19 expressed in bactosome; type: ADME
Cytochrome P450 2C19, sequence (P33261 whole entry): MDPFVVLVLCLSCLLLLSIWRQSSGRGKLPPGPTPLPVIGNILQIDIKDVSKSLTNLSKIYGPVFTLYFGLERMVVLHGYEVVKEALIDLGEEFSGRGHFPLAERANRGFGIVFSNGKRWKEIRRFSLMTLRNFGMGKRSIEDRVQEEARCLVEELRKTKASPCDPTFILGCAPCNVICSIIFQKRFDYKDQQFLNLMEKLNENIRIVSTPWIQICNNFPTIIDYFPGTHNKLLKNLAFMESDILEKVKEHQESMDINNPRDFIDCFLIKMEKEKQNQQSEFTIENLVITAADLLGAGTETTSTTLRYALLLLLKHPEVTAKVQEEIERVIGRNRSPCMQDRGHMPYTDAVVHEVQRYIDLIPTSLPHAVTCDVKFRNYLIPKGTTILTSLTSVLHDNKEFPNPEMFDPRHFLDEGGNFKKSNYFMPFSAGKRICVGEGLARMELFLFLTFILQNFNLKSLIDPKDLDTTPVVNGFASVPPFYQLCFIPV

[21] = Volume of distribution at steady state in portal vein-cannulated rat; type: ADME, organism-based; conditions: in vivo, read-out: Vdss
[22] = Blood clearance in portal vein-cannulated rat; type: ADME, organism-based; conditions: whole blood
[23] = biological target: Cytochrome P450 2D6 (Homo sapiens, UniProt P10635); experiment: Inhibition of human CYP2D6 expressed in bactosome; type: ADME
Cytochrome P450 2D6, sequence (P10635 whole entry): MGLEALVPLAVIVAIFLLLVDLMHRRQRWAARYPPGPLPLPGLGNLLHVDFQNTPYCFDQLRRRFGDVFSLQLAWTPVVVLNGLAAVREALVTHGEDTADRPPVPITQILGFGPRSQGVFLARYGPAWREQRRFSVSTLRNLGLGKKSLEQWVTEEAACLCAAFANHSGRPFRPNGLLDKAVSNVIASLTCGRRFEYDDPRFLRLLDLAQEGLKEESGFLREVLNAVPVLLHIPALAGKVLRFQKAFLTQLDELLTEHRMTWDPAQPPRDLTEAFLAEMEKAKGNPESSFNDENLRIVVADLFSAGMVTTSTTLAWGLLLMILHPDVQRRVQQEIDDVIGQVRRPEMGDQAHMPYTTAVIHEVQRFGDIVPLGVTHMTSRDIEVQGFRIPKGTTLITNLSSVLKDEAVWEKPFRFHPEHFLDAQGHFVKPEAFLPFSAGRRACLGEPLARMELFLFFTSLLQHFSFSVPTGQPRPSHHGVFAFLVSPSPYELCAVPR

[24] = biological target: T6, D(4) dopamine receptor (Homo sapiens, UniProt P21917); experiment: as §1
T6 sequence (P21917 whole entry): T3 sequence (whole entry)

[25] = Intrinsic clearance in rat liver microsomes assessed per mg of protein; type: ADME; conditions: read-out: CLH

Ki [1]: > 10000 nM | Ki [2]: 251 nM
SMILES: Cn1c(SCCCN2CCOC(c3ccc(C(F)(F)F)cc3)C2)nnc1-c1nccs1 (racemic)

Ki [1]: > 10000 nM | Ki [2]: 126 nM
SMILES: Cn1c(SCCCN2CCOC(c3ccc(C(F)(F)F)cc3)C2)nnc1-c1ccc(-n2cnnc2)cc1 (racemic)

Ki [1]: > 10000 nM | Ki [2]: 158 nM
SMILES: Cn1c(SCCCN2CCOC(c3ccc(C(F)(F)F)cc3)C2)nnc1-c1cnccn1 (racemic)

Ki [1]: > 10000 nM | Ki [3]: 10 nM | Ki [2]: 25.1 nM
SMILES: Cc1nc(-c2ccc(-c3nnc(SCCCN4CCOC(c5ccc(C(F)(F)F)cc5)C4)n3C)cc2)no1 (racemic)

Ki [1]: > 10000 nM | Ki [3]: 20 nM | Ki [2]: 63.1 nM
SMILES: CC(=O)c1ccc(-c2nnc(SCCCN3CCOC(c4ccc(C(F)(F)F)cc4)C3)n2C)cc1 (racemic)

Ki [1]: > 10000 nM | Ki [3]: 12.6 nM | Ki [2]: 15.8 nM
SMILES: Cn1c(SCCCN2CCOC(c3ccc(C(F)(F)F)cc3)C2)nnc1-c1ccc(-c2nnco2)cc1 (racemic)

Ki [1]: > 10000 nM | Ki [2]: 501 nM
SMILES: Cc1ccc(C2CN(CCCSc3nnc(-c4ocnc4C)n3C)CCO2)cc1 (racemic)

Ki [1]: > 10000 nM | Ki [2]: 100 nM
SMILES: Cn1c(SCCCN2CCOC(c3ccc(C(F)(F)F)cc3)C2)nnc1-c1cncc(C(N)=O)c1 (racemic)

SMILES: Cn1c(SCCCN2CCOC(c3ccc(C(F)(F)F)cc3)C2)nnc1-c1ccc(C(N)=O)cc1 (racemic) [listing 1 of 2 here]
Ki [1]: > 10000 nM | Ki [4]: 5010 nM | Ki [3]: 20 nM | Ki [5]: 1000 nM | Ki [2]: 31.6 nM

SMILES: Cc1ncoc1-c1nnc(SCCCN2CCOC(c3ccc(F)cc3)C2)n1C (racemic)
Ki [1]: > 10000 nM | Ki [2]: 398 nM

Ratio Ki [6]: 300
SMILES: Cn1c(SCCCN2CCOC(c3ccc(C(F)(F)F)cc3)C2)nnc1-c1ccc(-c2ncco2)cc1 (racemic)

SMILES: Cn1c(SCCCN2CCOC(c3ccc(C(F)(F)F)cc3)C2)nnc1-c1ccc(C(N)=O)cc1 (racemic) [listing 2 of 2 here]
Activity [7]: inactive | Activity [8]: inactive | Activity [9]: inactive

SMILES: Cc1ncoc1-c1nnc(SCCCN2CCOC(c3ccc(F)cc3)C2)n1C (stereo in doubt; 7)
Activity [7]: inactive | Activity [8]: inactive | Activity [9]: inactive

SMILES: Cc1ncoc1-c1nnc(SCCCN2CCOC(c3ccc(C(F)(F)F)cc3)C2)n1C (stereo in doubt; 9)
Ki [7]: > 100000 nM | microsomal CLint [10]: 40 µL/min/mg | fraction unbound [11]: 0.071 | IC50 [12]: > 6000 nM | IC50 [13]: > 6000 nM | IC50 [14]: > 6000 nM | Fa [15]: 63% | half-life [16]: 3.5 h | fraction unbound [17]: 0.062 | IC50 [18]: > 6000 nM | bioavailability [19]: 58% | IC50 [20]: > 6000 nM | Ki [4]: 3160 nM | Vd [21]: 2.5 L/kg | clearance [22]: 13.5 mL/min/kg | Ki [8]: 1000 nM | Ki [5]: 1000 nM | Ki [2]: 50.1 nM | IC50 [23]: > 6000 nM | Ki [24]: > 100000 nM

Ki [3]: 15.8 nM | pKi [2]: 7.1
SMILES: Cc1ncoc1-c1nnc(SCCCCN2CCOC(c3ccc(C(F)(F)F)cc3)C2)n1C (stereo in doubt; 11)
Ki [4]: 2510 nM

SMILES: Cn1c(SCCCN2CCOC(c3ccc(C(F)(F)F)cc3)C2)nnc1-c1ccc(C(N)=O)cc1 (stereo in doubt; 26)
microsomal CLint [10]: 63.2 µL/min/mg | fraction unbound [11]: 0.03 | IC50 [12]: > 30000 nM | IC50 [13]: > 30000 nM | IC50 [14]: > 30000 nM | fraction unbound [17]: 0.045 | IC50 [18]: > 30000 nM | IC50 [20]: > 30000 nM | Ki [4]: 6310 nM | Ki [3]: 6.31 nM | microsomal CLint [25]: 16.3 µL/min/mg | Ki [2]: 15.8 nM | IC50 [23]: > 30000 nM

Ki [2]: 398 nM
SMILES: Cn1c(SCCCN2CCOC(c3ccc(C(F)(F)F)cc3)C2)nnc1-c1ccc(-c2ncco2)cc1 (stereo in doubt; 33)

microsomal CLint [10]: 668 µL/min/mg | fraction unbound [11]: 0.005 | IC50 [12]: > 3000 nM | IC50 [13]: > 3000 nM | IC50 [14]: > 3000 nM | fraction unbound [17]: 0.008 | IC50 [18]: > 3000 nM | IC50 [20]: > 3000 nM | Ki [3]: 3.16 nM | microsomal CLint [25]: 114 µL/min/mg | Ki [2]: 6.31 nM | IC50 [23]: > 3000 nM
SMILES: Cn1c(SCCCN2CCOC(c3ccc(C(F)(F)F)cc3)C2)nnc1-c1ccc(-c2ncco2)cc1 (stereo in doubt; 34)
Ki [4]: 1260 nM
